The values below are quoted from earlier work in patent US20220370529A1, “CANNABIS COMPOSITIONS AND RELATED METHODS” (Access Business Group International LLC, priority 2021, published 2022).

The test system of series [1] is human dermal fibroblast (HDF). Particulars: HDF cells.
The subject of series [2] is human keratinocytes (HaCaT cells). The following applies: of 26 genes upregulated by TNF-α treatment.
For series [3] the following is noted: with rapid metabolism or redistribution.

On to `C=C(C)[C@@H]1CCC(C)=C[C@H]1c1c(O)cc(CCCCC)cc1O` [CBD, cannabidiol], for which the “partition coefficient (log P)” value is approximately 6.3. Besides, in series [1] (TNF-α treatment), the “inhibitory effects on genes playing a role in inflammation and matrix remodeling, including IL-6 and MMP-9” value is reported as “did not exhibit any inhibitory effects”. Moreover, the “wound healing genes downregulated” value in series [1] (of 16 genes upregulated by TNF-α treatment) is 11 genes. In addition, the “inflammatory related genes downregulated” value in series [2] was 15 genes.
`CC1=CC[C@H]2C[C@@H]1C2(C)C` [α-Pinene, α-pinene]: the human pulmonary uptake in series [3] was approximately 60%.
